Usually Ki stands for the equilibrium dissociation constant of an inhibitor or competing ligand from its target.

Our source for the Ki values is ChEMBL document CHEMBL1139429, “2-Thiazolylimino/heteroarylimino-5-arylidene-4-thiazolidinones as new agents with SHP-2 inhibitory action” (J Med Chem, 2008).

SMILES strings stand for the structures.

The target in the assay is T1, Tyrosine-protein phosphatase non-receptor type 11 (Homo sapiens, UniProt Q06124).
T1 sequence (Q06124 whole entry): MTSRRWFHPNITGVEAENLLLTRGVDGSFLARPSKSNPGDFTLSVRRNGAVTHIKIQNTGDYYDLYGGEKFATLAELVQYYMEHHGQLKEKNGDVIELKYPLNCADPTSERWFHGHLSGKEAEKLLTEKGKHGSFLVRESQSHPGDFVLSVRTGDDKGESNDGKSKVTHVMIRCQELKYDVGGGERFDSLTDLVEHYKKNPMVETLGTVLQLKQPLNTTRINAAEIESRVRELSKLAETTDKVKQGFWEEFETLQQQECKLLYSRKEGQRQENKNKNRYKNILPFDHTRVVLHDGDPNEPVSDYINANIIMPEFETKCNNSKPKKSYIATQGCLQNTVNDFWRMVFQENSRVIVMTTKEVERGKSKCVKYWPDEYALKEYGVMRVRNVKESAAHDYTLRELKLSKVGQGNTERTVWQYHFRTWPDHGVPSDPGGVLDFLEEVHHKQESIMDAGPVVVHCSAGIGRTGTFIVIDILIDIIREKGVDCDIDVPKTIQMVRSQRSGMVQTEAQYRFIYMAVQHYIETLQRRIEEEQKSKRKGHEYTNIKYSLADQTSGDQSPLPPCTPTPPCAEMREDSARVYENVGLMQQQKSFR
Description: Inhibition of human recombinant GST-fused SHP2 using p-nitrophenyl phosphate as substrate.
`O=C1N/C(=N\c2nccs2)S/C1=C/c1ccc([N+](=O)[O-])cc1`: the inhibition constant Ki stood at 474 µM.

Regarding `COc1cc(/C=C2/S/C(=N/c3nc(-c4ccccc4)cs3)NC2=O)ccc1O`, the Ki amounted to 103 µM.

For `COc1cc(/C=C2/S/C(=N\c3nsc4ccccc34)NC2=O)ccc1O`, the Ki was found to be 90.8 µM.

Consider `COc1ccc(/C=C2/S/C(=N\c3nsc4ccccc34)NC2=O)cc1`, for which the Ki was 22.8 µM.

For `COc1ccc(/C=C2/S/C(=N/c3nccs3)NC2=O)cc1`, the Ki worked out at 11.7 µM.

Consider `COc1cc(/C=C2/S/C(=N/c3nc4ccccc4s3)NC2=O)cc(OC)c1O`, for which the Ki stood at 18.1 µM.

As for `O=C1N/C(=N\c2nc3ccccc3s2)S/C1=C/c1cccc([N+](=O)[O-])c1`, the Ki was found to be 28.7 µM.

Regarding `O=C1N/C(=N\c2nccs2)S/C1=C/c1cccc(Cl)c1`, the Ki turned out to be 1090 µM.

`COc1cc(/C=C2/S/C(=N/c3nc4ccc([N+](=O)[O-])cc4s3)NC2=O)cc(OC)c1O`: the Ki came to 12.9 µM.

For `COc1cc(/C=C2/S/C(=N/c3nc(C45CC6CC(CC(C6)C4)C5)cs3)NC2=O)ccc1O`, the Ki was found to be 12.3 µM.
